# Test results from patent US20040247537A1, “Uv-screening peptide-flavonoid conjugates” (priority 2001, published 2004).
# Several values for one entry are separate records, joined by “and”; a condition that tells them apart may be missing. Identical values can stand only once.
# Tests used:
# [1] = tested on: skin (buttocks) of three volunteers, epidermis; experiment: Penetration depth into the skin (color reaction on biopsy slices); assay type: in vivo; conditions: human
# Excerpt: The essential condition is the existence of a specific detection method, which can be used to visualize the presence of particular sunscreen component. In case of quercetin one can take advantage of the existence of ortho dihydroxybenzene (catechol) configuration on the benzene ring B. Different colorimetric methods for catechols have been described. We choose the reaction described in J. Invest Dermatol., 70:197, 1978, (S. Pavel et al.).
# Skin penetration study were executed using the following preparations:
# 1. Quercetin (1%) in cremor cetomacrogolis FNA (CMC)
# 2. Querceti-gelatin (small molecular weight fraction) (10-20%) in CMC.
# 3. Quercetin-gelatin (large molecular weight fraction) (10-20%) in CMC.
# 4. Catechol (1%) (as a penetration marker) in CMC.
# The preparations were applied to the skin (buttocks) of three volunteers. The penetration times were 30 min, 1 hour and 3 hours. After each penetration time a biopsy (4 mm) was taken after local anesthesia. The biopsy material was frozen in liquid nitrogen and kept for the further analysis.
# The biopsy material were cut in consecutive slices of 8 um thick The slices were incubated in a selected solution to achieve the color characteristic of catecholic structures. The depth of penetration was measured visually and expressed as a percentage penetrated epidermis, as follows: […]
# [2] = Chelating capacity: free Fe2+ by ion chromatography; assay type: physicochemical; conditions: test samples a: 1 millimol/l FeSO4 solution mixed 1:1 with test solution, ethanol:water 1:3, 10 minutes at 37° C.; iron alone 0.50
# Excerpt: (§1) The amount of free Fe^2+ and Fe^3+ can be determined by ion-chromatography.
# (§2) Gelatin has a very high affinity to Dionex column material that is used in the determination of iron ions. Gelatin will not elute from the column and thereby changes the characteristics of the column so that the separation is not stable. To prevent this a solid state extraction (SPE) column is used to separate the metal ions from the gelatin matrix. After this pretreatment the sample is conservated with 10 millimolar hydrochloric acid. The sample is then injected into the ion-chromatograph. The metal-ions form a complex with the pyridine-2,6-dicarboxylic acid (PDCA). The complexed iron ions are then separated by their differences in affinity to the column material, which has as well anion as cation characteristics (mixed mode). […] The signals obtained at the retention times known for Fe^2+ and Fe^3+ are proportional to the concentrations, which are calculated from a calibration curve.
# (§3) A Dionex OnGuard-RP P/N 039595 column was conditioned with 5 ml methanol and 10 ml de-ionized water. […] 5 ml of the eluate is quantitatively pipetted into a 10 ml volumetric flask and 20 mM hydrochloric acid was added up to 10.00 ml. […]
# (§4) In the same way, test samples 1b, 2b, 3b and 4b were prepared with Fe2(SO4)3 instead of FeSO4. […] The amounts of free Fe^2+ or Fe^3+ were determined by the method described above.
# [3] = Chelating capacity: free Fe3+ by ion chromatography; assay type: physicochemical; conditions: test samples b: Fe2(SO4)3 instead of FeSO4, mixed 1:1 with test solution, 10 minutes at 37° C.; iron alone 0.50
# Excerpt: as §1, §2, §3, §4
# [4] = tested on: skin of volunteer subjects (skin types III or IV), UV-A radiation; experiment: UV-A protection test on volunteer subjects (MPD, SPF); assay type: in vivo, human; conditions: one value per volunteer
# Description: The test is performed on volunteer subjects with normal skin types III (Burns moderately, tans gradually) or IV (Burns minimally; tans well). The subjects have no history of photo-sensitivity, are not using systematic medications and have not been exposed to direct sunlight for the previous 6 weeks.
# Two test sites of 5×10 cm, each test site divided in 6 sub-sites, are marked on the back of the subjects between the waist line and the shoulder blades. One test site is not treated and therefor unprotected. On the other test site 100 mg sunscreen product is applied uniformly to the skin so that the amount of the UV-absorbing compound applied is about 2 mg per m2. In case of the quercetin-gelatin compound the amount applied is such that also in this case 2 mg/m2 of the linked quercetin is applied, The applied sunscreen is allowed to dry for about 15 minutes.
# A series of six doses of UV-A radiation, increasing in energy is applied to each test site using a UV-A Sellas Sun 2000 (irradiance about 50 milliWatt/cm^2 at 30 cm). […]
# The MPD (minimal pigmenting dose) of each test site is determined visually after 3 hours of exposure. The MPD is defined as the quantity of radiation energy required to produce the first unambiguous pigmented reaction.
# The SPF (Sun protection factor) is calculated as the quotient of […].
"Penetration depth, percentage penetrated epidermis ([1]; 30 min)","Penetration depth, percentage penetrated epidermis ([1]; 1 h)","Penetration depth, percentage penetrated epidermis ([1]; 3 h)",Structure (SMILES),Amount of free Fe^2+ [2],Amount of free Fe^3 [3],"MPD (minimal pigmenting dose), protected ([4]; protected test site, about 2 mg per m2 UV-absorbing compound (linked quercetin) applied, UV-A doses 33 to 8 joule/cm^2, determined visually after 3 hours)","SPF (Sun protection factor) ([4]; quotient of the MPDs of protected and unprotected skin, UV-A)"
40%,60%,90%,"Oc1ccccc1O [Catechol (1%), Catechol]",–,–,–,–
30%,50%,80%,"O=c1c(O)c(-c2ccc(O)c(O)c2)oc2cc(O)cc(O)c12 [Quercetin, quercetin]",0.16 millimol per liter,0.20 millimol per liter,14 Joule/cm^2 and 19 Joule/cm^2,1.8 and 2.4
